For data set [1], the system named is PD1-ss+10aa/Gaussia Luciferase. Description: Dox-Induced PD1-ss-Gluc Assay. Format: cell-based. Conditions: 24 hr Dox induction; 293FRT/TO cells; read-out: 24 hr Dox Inducible PD1ssGluc 293FRT/TO: Mean IC50. Summed up:
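Flp-In 293 T-REx, stable line; Tet-regulated PD1-ss+10aa fused to Gaussia luciferase; plated day prior; cpd + doxycycline in DMSO/media; 37 °C, 5% CO2.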

The subject of data set [2] is TNFα-FL/Gaussia Luciferase. Description: Dox Induced TNFα-FL-Gluc Assay. Conditions: for IC50: 24 hr Dox induction, 293FRT/TO cells, read-out: 24 hr Dox Inducible TNFaFLGluc 293FRT/TO: Mean IC50; for 24 hr Dox Inducible TNFaFLGluc 293FRT/TO: TNF/PD1: ratio of TNFaFLGluc IC50 to PD1ssGluc IC50. Format: cell-based. The text has this: (§1) Flp-In 293 T-REx™ cells were transfected with pcDNA™5/FRT/TO plasmid inserted with cDNA encoding Gaussia Luciferase fused to the 3′ end of cDNA encoding full length TNFα (amino acids 1-233). Transfected cells were selected for resistance to the selectable markers Hygromycin and Blasticidin to create a stable cell line that contained the TNFα-FL/Gaussia Luciferase cDNA insert whose expression was regulated under the T-REx™ system. The day before assay, cells were trypsinized and plated in 384-well tissue culture plates. The next day, compound dilutions in DMSO/media containing doxycycline were added to the wells and incubated at 37° C., 5% CO2.
(§2) For chemical structures that include one or more stereoisomers, but are illustrated without indicating stereochemistry, the assay data refers to a mixture of stereoisomers.

The subject of data set [3] is HER3-ss+4aa/Gaussia Luciferase. Description: Dox-Induced Her3-ss-Gluc Assay. Format: cell-based. Conditions: 24 hr Dox induction; 293FRT/TO cells; read-out: 24 hr Dox Inducible Her3(ss + 4)Gluc 293FRT/TO: Mean IC50.
Source text: as §1, with “HER3 signal sequence plus 4 amino” for “full length TNFα (amino”, “(N-[…]-C) (SEQ ID NO: 2).” for “1-233).”, “HER3-ss+4aa/Gaussia” for “TNFα-FL/Gaussia”
as §2

Data set [4] relates to IL-2-FL/Gaussia Luciferase. As to the kind of experiment: Dox Induced IL2-FL-Gluc Assay. Conditions: for IC50: 24 hr Dox induction, 293FRT/TO cells, read-out: 24 hr Dox Inducible IL2FLGluc 293FRT/TO: Mean IC50; for 24 hr Dox Inducible IL2FLGluc 293FRT/TO: IL2/PD1: ratio of IL2FLGluc IC50 to PD1ssGluc IC50. Format: cell-based. Summed up:
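A hygromycin- and blasticidin-resistant 293 T-REx clone carrying inducible IL-2–Gaussia luciferase (full-length IL-2, residues 1-153) serves as the cell system. After overnight plating, the cells get test compounds together with doxycycline in DMSO/media and are incubated at 37° C, 5% CO2.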

Data set [5] has as its system multiple myeloma cell line NCI-H929. As to the kind of experiment: H929 Cell Viability Assay. Format: cell-based, human. Conditions: Homo sapiens, NCI-H929, 48 h, NCI-H929 cells, Celltiter-Glo. The method, boiled down: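 A 48-hour compound treatment of cells in 10% FBS RPMI medium was followed by luciferase-based viability quantification.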
For orientation: ATP-based viability assays read luminescence as a measure of living cells.

For data set [6], the system named is multiple myeloma cell line U266B1. Description: U266 Cell Viability Assay. Format: cell-based, human. Particulars: Homo sapiens, U-266, 48 h, U266B1 cells, Celltiter-Glo. The method, boiled down: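 After growth in serum-supplemented RPMI 1640, cells received serially diluted compound in DMSO/media and were kept 48 hours before a CellTiter-Glo luminescence readout.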

A short description of data set [7]: Liver Microsome Stability Assay (rat). Conditions: rat liver microsomes, with NADPH, 1.0 uM compound.
Method: (§3) Stability of a compound was assessed in the presence of liver microsomes from various sources—mouse, rat, monkey and human liver microsomes. 1.0 uM compound, 0.4% DMSO in 0.1 M Potassium Phosphate with 1.0 mg/mL liver microsomes, were incubated at 37° C. with or without 1 mM NADPH. The samples were quenched at 0, and 30 minutes.
Data set [8] in a line: Liver Microsome Stability Assay (mouse). Conditions: mouse liver microsomes, with NADPH, 1.0 uM compound. On the technique in general: Microsomes from liver hold many membrane-bound enzymes, among them those of drug oxidation.
Method: as §3
A short description of data set [9]: Liver Microsome Stability Assay (human). Conditions: human liver microsomes, with NADPH, 1.0 uM compound.
Method: as §3
Data set [10] is described as follows: Liver Microsome Stability Assay (monkey). Particulars: monkey liver microsomes, with NADPH, 1.0 uM compound.
Method: as §3

The term EC50 denotes the concentration giving half of the maximal effect.

For the compound `O=C(Nc1nc([C@H]2CCCN2c2ccc(OC3CCOCC3)cc2)cs1)c1cccn1Cc1ccncc1` [Compound A1, (R)-1-(pyridin-4-ylmethyl)-N-(4-(1-(4-((tetrahydro-2H-pyran-4-yl)oxy)phenyl)pyrrolidin-2-yl)thiazol-2-yl)-1H-pyrrole-2-carboxamide], the IC50 in data set [1] turned out to be 26.9 nM; in data set [2] it was 369 nM; in data set [3], 58.4 nM; in data set [4], 53.8 nM. For the same compound, in data set [2], the “24 hr Dox Inducible TNFaFLGluc 293FRT/TO: TNF/PD1” value came out at 13.7. The “24 hr Dox Inducible IL2FLGluc 293FRT/TO: IL2/PD1” value in data set [4] amounted to 2. For the same compound, the EC50 in data set [5] was 1230 nM; in [6] it was > 25000 nM. The “Liver Microsome Stability (Multiple Species): Rat - % Remaining after 30 min w/NADPH” value in [7] is 50%. The “Liver Microsome Stability (Multiple Species): Mouse - % Remaining after 30 min w/NADPH” value in data set [8] turned out to be 24.8%. The “Liver Microsome Stability (Multiple Species): Human - % Remaining after 30 min w/NADPH” value in [9] came out at 14.3%. The “Liver Microsome Stability (Multiple Species): Monkey - % Remaining after 30 min w/NADPH” value in data set [10] was determined as 6.47%.

In the case of `O=C(Nc1nc([C@H]2CCCN2c2ccc(OC3COC3)cc2)cs1)c1cccn1Cc1ccncc1` [Compound A2, (R)-N-(4-(1-(4-(oxetan-3-yloxy)phenyl)pyrrolidin-2-yl)thiazol-2-yl)-1-(pyridin-4-ylmethyl)-1H-pyrrole-2-carboxamide], the IC50 is 18.2 nM in [1], 211 nM in [2], 31.4 nM in [3] and 34 nM in [4]. The “24 hr Dox Inducible TNFaFLGluc 293FRT/TO: TNF/PD1” value in data set [2] stood at 11.6. For the same compound, the “24 hr Dox Inducible IL2FLGluc 293FRT/TO: IL2/PD1” value in data set [4] was 1.9. Moreover, the EC50 in data set [5] is 1340 nM; in data set [6], > 25000 nM. Also, the “Liver Microsome Stability (Multiple Species): Rat - % Remaining after 30 min w/NADPH” value in [7] was 7.5%. Besides, the “Liver Microsome Stability (Multiple Species): Mouse - % Remaining after 30 min w/NADPH” value in data set [8] was determined as 6.6%. Besides, the “Liver Microsome Stability (Multiple Species): Human - % Remaining after 30 min w/NADPH” value in [9] is on record as 0.92%. Besides, in [10], the “Liver Microsome Stability (Multiple Species): Monkey - % Remaining after 30 min w/NADPH” value worked out at 0.18%.

As for `O=C(Nc1nc([C@H]2CCCN2c2ccc(O[C@@H]3CCOC3)cc2)cs1)c1cccn1Cc1ccncc1` [Compound A3, 1-(pyridin-4-ylmethyl)-N-(4-((R)-1-(4-(((R)-tetrahydrofuran-3-yl)oxy)phenyl)pyrrolidin-2-yl)thiazol-2-yl)-1H-pyrrole-2-carboxamide], the IC50 stood at 15.6 nM in data set [1], 171 nM in [2], 33.5 nM in [3] and 26 nM in data set [4]. For the same compound, in data set [2], the “24 hr Dox Inducible TNFaFLGluc 293FRT/TO: TNF/PD1” value stood at 11. The “24 hr Dox Inducible IL2FLGluc 293FRT/TO: IL2/PD1” value in data set [4] stood at 1.7. The EC50 in data set [5] is 530 nM; in data set [6], > 25000 nM. Besides, the “Liver Microsome Stability (Multiple Species): Rat - % Remaining after 30 min w/NADPH” value in data set [7] was 20.1%. Besides, the “Liver Microsome Stability (Multiple Species): Mouse - % Remaining after 30 min w/NADPH” value in [8] was found to be 9%. In addition, in [9], the “Liver Microsome Stability (Multiple Species): Human - % Remaining after 30 min w/NADPH” value turned out to be 2.33%. In addition, in data set [10], the “Liver Microsome Stability (Multiple Species): Monkey - % Remaining after 30 min w/NADPH” value was found to be 0.62%.

Consider `O=C(Nc1nc([C@H]2CCCN2c2ccc(O[C@H]3CCOC3)cc2)cs1)c1cccn1Cc1ccncc1` [Compound A4, 1-(pyridin-4-ylmethyl)-N-(4-((R)-1-(4-(((S)-tetrahydrofuran-3-yl)oxy)phenyl)pyrrolidin-2-yl)thiazol-2-yl)-1H-pyrrole-2-carboxamide], for which the IC50 in [1] turned out to be 16 nM; in data set [2], 155 nM; in data set [3] it was 26.8 nM; in data set [4], 25.7 nM. Besides, the “24 hr Dox Inducible TNFaFLGluc 293FRT/TO: TNF/PD1” value in [2] was determined as 9.69. Also, in data set [4], the “24 hr Dox Inducible IL2FLGluc 293FRT/TO: IL2/PD1” value is recorded as 1.6. Besides, the EC50 in data set [5] was 430 nM; in [6] it was > 25000 nM. In data set [7], the “Liver Microsome Stability (Multiple Species): Rat - % Remaining after 30 min w/NADPH” value amounted to 15.4%. In addition, the “Liver Microsome Stability (Multiple Species): Mouse - % Remaining after 30 min w/NADPH” value in data set [8] was 9.36%. Besides, the “Liver Microsome Stability (Multiple Species): Human - % Remaining after 30 min w/NADPH” value in data set [9] was found to be 4.21%. Moreover, in [10], the “Liver Microsome Stability (Multiple Species): Monkey - % Remaining after 30 min w/NADPH” value was found to be 0.36%.

`CC(C)Oc1ccc(N2CCC[C@@H]2c2csc(NC(=O)c3cccn3Cc3ccncc3)n2)cc1` [Compound A5, (R)-N-(4-(1-(4-isopropoxyphenyl)pyrrolidin-2-yl)thiazol-2-yl)-1-(pyridin-4-ylmethyl)-1H-pyrrole-2-carboxamide]: the IC50 came out at 14.7 nM in [1], 87 nM in [2], 25.8 nM in data set [3] and 22.7 nM in [4]. Besides, the “24 hr Dox Inducible TNFaFLGluc 293FRT/TO: TNF/PD1” value in data set [2] is 5.92. Besides, the “24 hr Dox Inducible IL2FLGluc 293FRT/TO: IL2/PD1” value in [4] worked out at 1.5. In addition, the EC50 in [5] is 448 nM; in data set [6], > 25000 nM. Further, the “Liver Microsome Stability (Multiple Species): Rat - % Remaining after 30 min w/NADPH” value in data set [7] worked out at 26.5%. In addition, the “Liver Microsome Stability (Multiple Species): Mouse - % Remaining after 30 min w/NADPH” value in data set [8] was found to be 13%. The “Liver Microsome Stability (Multiple Species): Human - % Remaining after 30 min w/NADPH” value in data set [9] came to 10.4%. The “Liver Microsome Stability (Multiple Species): Monkey - % Remaining after 30 min w/NADPH” value in data set [10] is recorded as 4.26%.

On to `CC(=O)N1CCC(Oc2ccc(N3CCC[C@@H]3c3csc(NC(=O)c4cccn4Cc4ccncc4)n3)cc2)CC1` [Compound A7, (R)-N-(4-(1-(4-((1-acetylpiperidin-4-yl)oxy)phenyl)pyrrolidin-2-yl)thiazol-2-yl)-1-(pyridin-4-ylmethyl)-1H-pyrrole-2-carboxamide], for which the IC50 in [1] was 13.8 nM; in data set [2], 330 nM; in data set [3], 25.2 nM; in data set [4], 35.6 nM. The “24 hr Dox Inducible TNFaFLGluc 293FRT/TO: TNF/PD1” value in [2] amounted to 23.8. The “24 hr Dox Inducible IL2FLGluc 293FRT/TO: IL2/PD1” value in [4] amounted to 2.6. Also, the EC50 was 497 nM in data set [5] and > 25000 nM in data set [6]. Also, the “Liver Microsome Stability (Multiple Species): Rat - % Remaining after 30 min w/NADPH” value in data set [7] turned out to be 5.67%. The “Liver Microsome Stability (Multiple Species): Mouse - % Remaining after 30 min w/NADPH” value in [8] is reported as 39.9%. Moreover, the “Liver Microsome Stability (Multiple Species): Human - % Remaining after 30 min w/NADPH” value in [9] came to 4.64%. Further, the “Liver Microsome Stability (Multiple Species): Monkey - % Remaining after 30 min w/NADPH” value in [10] is 3.56%.

As to `CN1CCC(Oc2ccc(N3CCC[C@@H]3c3csc(NC(=O)c4cccn4Cc4ccncc4)n3)cc2)CC1` [Compound A8, (R)-N-(4-(1-(4-((1-methylpiperidin-4-yl)oxy)phenyl)pyrrolidin-2-yl)thiazol-2-yl)-1-(pyridin-4-ylmethyl)-1H-pyrrole-2-carboxamide], the IC50 is 293 nM in data set [1], 13400 nM in data set [2], 588 nM in data set [3] and 806 nM in data set [4]. In addition, the “24 hr Dox Inducible TNFaFLGluc 293FRT/TO: TNF/PD1” value in [2] is 45.5. For the same compound, in data set [4], the “24 hr Dox Inducible IL2FLGluc 293FRT/TO: IL2/PD1” value is 2.7. In addition, the values for the concentration giving a half-maximal response (EC50) in [5] and in data set [6] were 2000 nM and 2940 nM, respectively. Besides, the “Liver Microsome Stability (Multiple Species): Rat - % Remaining after 30 min w/NADPH” value in data set [7] came to 11%. Besides, the “Liver Microsome Stability (Multiple Species): Mouse - % Remaining after 30 min w/NADPH” value in data set [8] was 3.14%. Further, the “Liver Microsome Stability (Multiple Species): Human - % Remaining after 30 min w/NADPH” value in data set [9] came out at 3.14%. Moreover, the “Liver Microsome Stability (Multiple Species): Monkey - % Remaining after 30 min w/NADPH” value in data set [10] was 11.3%.

These data come from patent publication US20230286973A1, “PROTEIN SECRETION INHIBITORS” (KEZAR LIFE SCIENCES, priority 2020, published 2023).
